Measurements published in patent publication US4550186A, “Binuclear copper (II) carboxylates formed from amine-carboxyboranes” (Duke University, priority 1983, dated 1985).

System: sn-Glycerol-3-phosphate Acyl Transferase
Test: In vitro liver enzyme study: sn-glycerol-3-phosphate acyl transferase
Format: biochemical, mouse
Conditions: in vitro CF1 liver
Experimental: In vitro enzymatic studies were determined using 10% homogenates of CF1 male mouse liver with 50-200 μM of test drugs. In vivo enzymatic studies were determined using 10% homogenates of liver from CF1 male mice obtained after administering the agents for 16 days at a dose ranging from 2.5-20 mg/kg/day intraperitoneally. The liver homogenates for both in vitro and in vivo studies were prepared in 0.25M sucrose and 0.001M (ethylenedinitrilo)tetraacetic acid. Acetyl coenzyme A synthetase and adenosine triphosphate dependent citrate lyase activities were determined spectrophotometrically at 540 nm as the hydroxylamate of acetyl coenzyme A formed after 30 min at 37° C. Mitochondrial citrate exchange was determined by the procedure of Robinson et al [Eur. J. Biochem., 216, 63 (1970)] using ^14 C-sodium bicarbonate (41 mCi/mmol) incorporated into mitochondrial ^14 C-citrate after isolating rat mitochondria (9000 g×10 min) from the homogenates. The exchanges of the ^14 C-citrate were determined after incubating the mitochondrial fraction which was loaded with labeled citrate and test drugs for 10 min. Then the radioactivity was measured in the mitochondrial and supernantant fractions in scintillation fluid and expressed as a percentage. Cholesterol side chain oxidation was determined by the method of Kritchevsky and Tepper [Artherosclerosis, 18, 93 (1973)] using (26-^14 C) cholesterol (50 mCi/mmol) and mitochondria isolated from rat liver homogenates. […] Fatty acid synthetase activity was determined by the method of Brady et al [J. Biol. Chem., 235, 3093 (1960)] using [2-^14 C] malonyl-coenzyme A (37.5 mCi/mmol) which was incorporated into newly synthesized fatty acids that were extracted with ether and counted. Acyl transferase activity was determined with glycerol-3phosphate [L-2-^3 H(N)] […] HCl and counted. Phosphatidate phosphohydrolase activity was measured as the inorganic phosphate released after 30 min from phosphatidic acid by the method of Mavis et al [J. Lipid Res., 19, 467 (1978)]. […]

{Cu[(CH3)3 N.BH2 CO2 ]2.(CH3)3 N.BH2 COOH} [Compound I]
sn-Glycerol-3-phosphate Acyl Transferase (50 μM): 108 ± 6 Percent Control
sn-Glycerol-3-phosphate Acyl Transferase (100 μM): 92 ± 8 Percent Control
sn-Glycerol-3-phosphate Acyl Transferase (200 μM): 89 ± 6 Percent Control
